In the OligoGym collection:
Values joined by “and” are separate entries in the source; they are usually repeats but may differ in a detail not shown here. Equal values may be shown once. After the bases stand the sugars from the 5' end (letter, count) and the backbone: PS all phosphorothioate, else s phosphorothioate and o phosphodiester by linkage. Methylation of C is not given here. k = constrained ethyl (cEt); d = 2'-deoxy (DNA)

Target: MALAT1
Settings: ASO, A431, 0.005 µM

Row | Sequence | target mRNA inhibition
1 | TATAGTTTACCACCTT (sugars k3 d10 k3, PS) | 14%
2 | AAAACCCCCGGAACTT (sugars k3 d10 k3, PS) | 9%
3 | ACCAACTAAGCGAATG (sugars k3 d10 k3, PS) | -12%
4 | AGCTTTACCTTCTAAC (sugars k3 d10 k3, PS) | 47%
5 | GTTGAGGCAAGTCCTC (sugars k3 d10 k3, PS) | 3%
6 | TCAATAGTACTATAGC (sugars k3 d10 k3, PS) | 25%
7 | CTACAAGTTACATGTT (sugars k3 d10 k3, PS) | -9%
8 | CATTCCTTCGGATGCT (sugars k3 d10 k3, PS) | 38%
9 | AATTTAGAGCTTCTCC (sugars k3 d10 k3, PS) | 21%
10 | TACCTCTTAAAGCACT (sugars k3 d10 k3, PS) | -17%
11 | CACCAAAGACCTCGAC (sugars k3 d10 k3, PS) | 18%
12 | AGGTTACCATAAGTAA (sugars k3 d10 k3, PS) | 10%
13 | ATCACCTTCGGTTTAA (sugars k3 d10 k3, PS) | 40%
14 | GACGCAATTCTCCCTG (sugars k3 d10 k3, PS) | 27%
15 | GGGAGTTACTTGCCAA (sugars k3 d10 k3, PS) | 10%
16 | TCAGGATCATTAAGCC (sugars k3 d10 k3, PS) | 37%
17 | CCCCAGTTGCCGCCAG (sugars k3 d10 k3, PS) | -18%
18 | TCAAGCACCGCTTGAG (sugars k3 d10 k3, PS) | -12% and 8%
19 | GAATCTTACTTGATAA (sugars k3 d10 k3, PS) | 13%
20 | AGGAACAAGTCCTACA (sugars k3 d10 k3, PS) | 36%
21 | TGGAATCCTGTCTGCT (sugars k3 d10 k3, PS) | 17%
22 | CTGAAGTCAAGACAAC (sugars k3 d10 k3, PS) | -17%
23 | TATGAGCTTCAGACCT (sugars k3 d10 k3, PS) | -9%

Row | Sequence | target mRNA inhibition
24 | ACTGCTTACAGATTTG (sugars k3 d10 k3, PS) | 61% and 64%
25 | CTCCAGCATAAAGCTG (sugars k3 d10 k3, PS) | 12%
26 | CTGTAAACCTGTGGTG (sugars k3 d10 k3, PS) | 15%
27 | ACAACAATTTAGAGCT (sugars k3 d10 k3, PS) | 11%
28 | TTTCCTCAAGCTCCGC (sugars k3 d10 k3, PS) | 54%
29 | CAGTAGGCCAGACCAA (sugars k3 d10 k3, PS) | 14%
30 | CTTCACCACGAACTGC (sugars k3 d10 k3, PS) | 43%
31 | ATAAGGTCAATAGTGT (sugars k3 d10 k3, PS) | 38%
32 | CGCAGACAAAGTTTCT (sugars k3 d10 k3, PS) | 57%
33 | AACCAACTTCCCCTTC (sugars k3 d10 k3, PS) | 16%
34 | GTTACCATAAGTAAGT (sugars k3 d10 k3, PS) | 2%
35 | CATTGGCACACAGCAC (sugars k3 d10 k3, PS) | 21%
36 | AATCTAAAAGCATTGC (sugars k3 d10 k3, PS) | 30%
37 | AACTGTAAACCTGTGG (sugars k3 d10 k3, PS) | -8%
38 | CAAAATCCTGAATGGC (sugars k3 d10 k3, PS) | 10%
39 | ATGGAAAGCGAGTTCA (sugars k3 d10 k3, PS) | 14%
40 | CAAACTGCTTACAGAT (sugars k3 d10 k3, PS) | 31%
41 | ACTGCAAGGTCTCATA (sugars k3 d10 k3, PS) | -1%
42 | GTGGCCTTTTAAAGTA (sugars k3 d10 k3, PS) | 15%
43 | TGCCAACAGCACAGCG (sugars k3 d10 k3, PS) | 1%
44 | CTGCTCGCCTCCTCCG (sugars k3 d10 k3, PS) | 16%
45 | CAGCGGTACACTCCTT (sugars k3 d10 k3, PS) | 36%
